How the values were obtained:
Rattus norvegicus [1] = assay: Antinociceptive activity in Wistar albino rat assessed as latency in reaction time required for thermal stimulus-induced tail flicking at 15 mg/kg, po after 120 mins by analgesiometric analysis (RVb=3.33 +/- 0.21 seconds); assay type: functional
Rattus norvegicus [2] = assay: Antinociceptive activity in Wistar albino rat assessed as latency in reaction time required for thermal stimulus-induced tail flicking at 30 mg/kg, po after 120 mins by analgesiometric analysis (RVb=3.33 +/- 0.21 seconds); assay type: functional
Rattus norvegicus [3] = assay: Antinociceptive activity in Wistar albino rat assessed as latency in reaction time required for thermal stimulus-induced tail flicking at 15 mg/kg, po after 30 mins by analgesiometric analysis (RVb=3.33 +/- 0.21 seconds); assay type: functional
Rattus norvegicus [4] = assay: Antinociceptive activity in Wistar albino rat assessed as latency in reaction time required for thermal stimulus-induced tail flicking at 15 mg/kg, po after 180 mins by analgesiometric analysis (RVb=3.16 +/- 0.16 seconds); assay type: functional
Rattus norvegicus [5] = assay: Antinociceptive activity in Wistar albino rat assessed as latency in reaction time required for thermal stimulus-induced tail flicking at 30 mg/kg, po after 30 mins by analgesiometric analysis (RVb=3.33 +/- 0.21 seconds); assay type: functional
Rattus norvegicus [6] = assay: Antinociceptive activity in Wistar albino rat assessed as latency in reaction time required for thermal stimulus-induced tail flicking at 15 mg/kg, po after 60 mins by analgesiometric analysis (RVb=3.16 +/- 0.16 seconds); assay type: functional
Mus musculus [7] = assay: Antinociceptive activity in Swiss albino mouse assessed as protection against acetic acid-induced abdominal constriction at 15 mg/kg, po measured for 10 mins after 5 mins of acetic acid challenge relative to control; assay type: functional, Abdomen
Mus musculus [8] = assay: Antinociceptive activity in Swiss albino mouse assessed as protection against acetic acid-induced abdominal constriction at 30 mg/kg, po measured for 10 mins after 5 mins of acetic acid challenge relative to control; assay type: functional, Abdomen
Rattus norvegicus [9] = assay: Antinociceptive activity in Wistar albino rat assessed as latency in reaction time required for thermal stimulus-induced tail flicking at 30 mg/kg, po after 60 mins by analgesiometric analysis (RVb=3.16 +/- 0.16 seconds); assay type: functional
Rattus norvegicus [10] = assay: Antinociceptive activity in Wistar albino rat assessed as latency in reaction time required for thermal stimulus-induced tail flicking at 30 mg/kg, po after 180 mins by analgesiometric analysis (RVb=3.16 +/- 0.16 seconds); assay type: functional
Rattus norvegicus [11] = assay: Antinociceptive activity in Wistar albino rat assessed as latency in reaction time required for thermal stimulus-induced tail flicking at 5 mg/kg, po after 180 mins by analgesiometric analysis (RVb=3.16 +/- 0.16 seconds); assay type: functional
Rattus norvegicus [12] = assay: Antinociceptive activity in Wistar albino rat assessed as latency in reaction time required for thermal stimulus-induced tail flicking at 5 mg/kg, po after 60 mins by analgesiometric analysis (RVb=3.16 +/- 0.16 seconds); assay type: functional
Rattus norvegicus [13] = assay: Antinociceptive activity in Wistar albino rat assessed as latency in reaction time required for thermal stimulus-induced tail flicking at 5 mg/kg, po after 120 mins by analgesiometric analysis (RVb=3.33 +/- 0.21 seconds); assay type: functional
Rattus norvegicus [14] = assay: Antinociceptive activity in Wistar albino rat assessed as latency in reaction time required for thermal stimulus-induced tail flicking at 5 mg/kg, po after 30 mins by analgesiometric analysis (RVb=3.33 +/- 0.21 seconds); assay type: functional
Mus musculus [15] = assay: Antinociceptive activity in Swiss albino mouse assessed as protection against acetic acid-induced abdominal constriction at 100 mg/kg, po measured for 10 mins after 5 mins of acetic acid challenge relative to control; assay type: functional, Abdomen

SMILES	Activity (Rattus norvegicus [1]) [s]	Activity (Rattus norvegicus [2]) [s]	Activity (Rattus norvegicus [3]) [s]	Activity (Rattus norvegicus [4]) [s]	Activity (Rattus norvegicus [5]) [s]	Activity (Rattus norvegicus [6]) [s]	Activity (Mus musculus [7]) [%]	Activity (Mus musculus [8]) [%]	Activity (Rattus norvegicus [9]) [s]	Activity (Rattus norvegicus [10]) [s]	Activity (Rattus norvegicus [11]) [s]	Activity (Rattus norvegicus [12]) [s]	Activity (Rattus norvegicus [13]) [s]	Activity (Rattus norvegicus [14]) [s]	Activity (Mus musculus [15]) [%]
COc1ccc(-c2nn(-c3ccccc3)cc2-c2cc(-c3ccccc3)on2)cc1	4	5.83	3.16	3.5	3.33	4.16	11.77	30.99	6	5.33					
CN1C(=O)C2ON=C(c3cn(-c4ccccc4)nc3-c3ccccc3)C2C1=O (stereo not given)	3.5	5	3.16	3.33	3.33	3.5	1.17	30.58	5.16	4.83					
CN1C(=O)C2ON=C(c3cn(-c4ccccc4)nc3-c3ccc(Cl)cc3)C2C1=O (stereo not given)	3.83	6.5	3.16	3.66	3.33	4	7.84	23.15	6.66	5.5					
CCOC(=O)c1onc(-c2cn(-c3ccccc3)nc2-c2ccc(Cl)cc2)c1C(=O)OCC	4.16	8.33	3.33	4	3.83	4.33	17.27	55.29	8.66	7.5					
CCOC(=O)c1onc(-c2cn(-c3ccccc3)nc2-c2ccc(Br)cc2)c1C(=O)OCC	3.83	8	3.33	3.5	3.33	4	12.94	56.87	8.16	7.5					
CN1C(=O)C2ON=C(c3cn(-c4ccccc4)nc3-c3ccc(Br)cc3)C2C1=O (stereo not given)	3.83	7	3.16	3.33	3.33	3.83	9.81	40.4	7.16	6.5					
O=C1C2ON=C(c3cn(-c4ccccc4)nc3-c3ccc(Cl)cc3)C2C(=O)N1c1ccccc1 (stereo not given)	4	6	3.33	3.66	3.33	4.16	23.93	43.15	6.16	5.5					
Cc1ccc(N2C(=O)C3ON=C(c4cn(-c5ccccc5)nc4-c4ccc(Cl)cc4)C3C2=O)cc1 (stereo not given)	3.33	5.16	3.33	3.33	3.33	3.66	22.75	42.75	5.33	4.5					
O=C1C2ON=C(c3cn(-c4ccccc4)nc3-c3ccccc3)C2C(=O)N1c1ccccc1 (stereo not given)	3.33	6.66	3.16	3.33	3.33	3.5	30.58	47.39	6.83	5.66					
CCOc1ccc(-c2nn(-c3ccccc3)cc2C2=NOC3C(=O)N(c4ccccc4)C(=O)C23)cc1 (stereo not given)	3.5	6.16	3.16	3.5	3.16	3.16	12.16	49.51	6.83	5.83					
CCOC(=O)c1onc(-c2cn(-c3ccccc3)nc2-c2ccc(OC)cc2)c1C(=O)OCC	4.33	7.66	3.33	4	3.83	5	11.39	57.65	7.83	7					
CCCCc1cc(-c2cn(-c3ccccc3)nc2-c2ccc(Cl)cc2)no1	3.5	6.6	3.16	3.33	3.33	3.66	12.56	47.09	6.83	6.16					
O=C1C2ON=C(c3cn(-c4ccccc4)nc3-c3ccc(Br)cc3)C2C(=O)N1c1ccccc1 (stereo not given)	3.66	6.83	3.16	3.33	3.16	3.66	2.75	49.04	7	6.5					
Brc1ccc(-c2nn(-c3ccccc3)cc2-c2cc(-c3ccccc3)on2)cc1	3.66	5.66	3.16	3.5	3.33	3.23	14.52	31.39	5.83	5.16					
CCOc1ccc(-c2nn(-c3ccccc3)cc2C2=NOC3C(=O)N(C)C(=O)C23)cc1 (stereo not given)	3.83	6	3.16	3.5	3.83	4	22.75	47.46	6.16	5.83					
Clc1ccc(-c2nn(-c3ccccc3)cc2-c2cc(-c3ccccc3)on2)cc1	4	6.6	3.16	3.83	3.83	4.16	1.58	49.04	6.83	6.16					
CC(C)=CCN1CC[C@]2(C)c3cc(O)ccc3C[C@H]1[C@H]2C [(+)-PENTAZOCINE]											8	9.33	9.3	9.16	
CC(=O)Oc1ccccc1C(=O)O [ASPIRIN]															62.35
